# Organism: Rattus norvegicus
# Assay: DrugMatrix - Regimen: Daily Repeat
# Format: toxicity, organism-based, Sprague-Dawley
# Parameters: regimen Daily Repeat, gender Male, age 6-8 weeks
# Conditions: in vivo, po, route oral GAVAGE, […]; for ABSOLUTE BASOPHIL / ABSOLUTE EOSINOPHIL / ABSOLUTE LYMPHOCYTE / ABSOLUTE MONOCYTE / ABSOLUTE SEGMENTED NEUTROPHIL / BASOPHIL / EOSINOPHIL / ERYTHROCYTE COUNT / HEMATOCRIT / HEMOGLOBIN / LEUKOCYTE COUNT / LYMPHOCYTE / MEAN CORPUSCULAR HEMOGLOBIN / MEAN CORPUSCULAR HEMOGLOBIN CONCENTRATION / MEAN CORPUSCULAR VOLUME / MONOCYTE / NEUTROPHIL / NUCLEATED RED BLOOD CELLS / PLATELET COUNT: tissue Blood; for ALANINE AMINOTRANSFERASE / ALBUMIN / ALKALINE PHOSPHATASE / ASPARTATE AMINOTRANSFERASE / BLOOD UREA NITROGEN / CARBON DIOXIDE / CHLORIDE / CHOLESTEROL / CREATINE PHOSPHOKINASE / CREATININE / GLUCOSE / LACTATE DEHYDROGENASE / LIPASE / PHOSPHORUS / POTASSIUM / SODIUM / TOTAL BILIRUBIN / TOTAL PROTEIN / URIC ACID: tissue Plasma
# [1] = 5 mg/kg, 120 h, dose level Low, time 5 day
# [2] = 94 mg/kg, 72 h, dose level High, time 3 day
# [3] = 94 mg/kg, 120 h, dose level High, time 5 day
smiles,measurement,setting,value
CC(C)n1c(/C=C/C(O)CC(O)CC(=O)O)c(-c2ccc(F)cc2)c2ccccc21 (centres undefined) [FLUVASTATIN],ABSOLUTE BASOPHIL,[1],0 CELLS/uL
same,ABSOLUTE EOSINOPHIL,[1],0 CELLS/uL
same,ABSOLUTE LYMPHOCYTE,[1],8489.33 CELLS/uL
same,ABSOLUTE MONOCYTE,[1],28 CELLS/uL
same,ABSOLUTE SEGMENTED NEUTROPHIL,[1],816 CELLS/uL
same,BASOPHIL,[1],0%
same,EOSINOPHIL,[1],0%
same,ERYTHROCYTE COUNT,[1],5.73 x10E6/uL
same,HEMATOCRIT,[1],34.77%
same,HEMOGLOBIN,[1],13.73 G/DL
same,LEUKOCYTE COUNT,[1],9.33 x10E3/uL
same,LYMPHOCYTE,[1],90.67%
same,MEAN CORPUSCULAR HEMOGLOBIN,[1],24 pg
same,MEAN CORPUSCULAR HEMOGLOBIN CONCENTRATION,[1],39.5 G/DL
same,MEAN CORPUSCULAR VOLUME,[1],60.73 fL
same,MONOCYTE,[1],0.33%
same,NEUTROPHIL,[1],9%
same,NUCLEATED RED BLOOD CELLS,[1],0 /100WBC
same,PLATELET COUNT,[1],1186.33 x10E3/uL
same,ALANINE AMINOTRANSFERASE,[1],89.67 u/L
same,ALBUMIN,[1],4.33 G/DL
same,ALKALINE PHOSPHATASE,[1],440.33 u/L
same,ASPARTATE AMINOTRANSFERASE,[1],141.33 u/L
same,BLOOD UREA NITROGEN,[1],13 mg/dL
same,CARBON DIOXIDE,[1],25.67 mmol/L
same,CHLORIDE,[1],103 MEQ/L
same,CHOLESTEROL,[1],59.67 mg/dL
same,CREATINE PHOSPHOKINASE,[1],300.67 u/L
same,CREATININE,[1],0.19 mg/dL
same,GLUCOSE,[1],158.33 mg/dL
same,LACTATE DEHYDROGENASE,[1],263.33 u/L
same,LIPASE,[1],51.67 u/L
same,PHOSPHORUS,[1],9.2 mg/dL
same,POTASSIUM,[1],5.92 MEQ/L
same,SODIUM,[1],148.8 MEQ/L
same,TOTAL BILIRUBIN,[1],0.17 mg/dL
same,TOTAL PROTEIN,[1],5.6 G/DL
same,URIC ACID,[1],0.77 mg/dL
same,ABSOLUTE BASOPHIL,[2],0 CELLS/uL
same,ABSOLUTE EOSINOPHIL,[2],39 CELLS/uL
same,ABSOLUTE LYMPHOCYTE,[2],7651.67 CELLS/uL
same,ABSOLUTE MONOCYTE,[2],155.33 CELLS/uL
same,ABSOLUTE SEGMENTED NEUTROPHIL,[2],2554 CELLS/uL
same,BASOPHIL,[2],0%
same,EOSINOPHIL,[2],0.33%
same,ERYTHROCYTE COUNT,[2],5.55 x10E6/uL
same,HEMATOCRIT,[2],35.43%
same,HEMOGLOBIN,[2],13.93 G/DL
same,LEUKOCYTE COUNT,[2],10.4 x10E3/uL
same,LYMPHOCYTE,[2],73.33%
same,MEAN CORPUSCULAR HEMOGLOBIN,[2],25.1 pg
same,MEAN CORPUSCULAR HEMOGLOBIN CONCENTRATION,[2],39.33 G/DL
same,MEAN CORPUSCULAR VOLUME,[2],63.83 fL
same,MONOCYTE,[2],1.33%
same,NEUTROPHIL,[2],25%
same,NUCLEATED RED BLOOD CELLS,[2],0 /100WBC
same,PLATELET COUNT,[2],1394.33 x10E3/uL
same,ALANINE AMINOTRANSFERASE,[2],258.33 u/L
same,ALBUMIN,[2],4.47 G/DL
same,ALKALINE PHOSPHATASE,[2],597.67 u/L
same,ASPARTATE AMINOTRANSFERASE,[2],446.67 u/L
same,BLOOD UREA NITROGEN,[2],15 mg/dL
same,CARBON DIOXIDE,[2],34.67 mmol/L
same,CHLORIDE,[2],95.67 MEQ/L
same,CHOLESTEROL,[2],55.67 mg/dL
same,CREATINE PHOSPHOKINASE,[2],534 u/L
same,CREATININE,[2],0.16 mg/dL
same,GLUCOSE,[2],136.33 mg/dL
same,LACTATE DEHYDROGENASE,[2],400.33 u/L
same,LIPASE,[2],10 u/L
same,PHOSPHORUS,[2],11.83 mg/dL
same,POTASSIUM,[2],5.75 MEQ/L
same,SODIUM,[2],143.43 MEQ/L
same,TOTAL BILIRUBIN,[2],0.2 mg/dL
same,TOTAL PROTEIN,[2],6.1 G/DL
same,URIC ACID,[2],0.7 mg/dL
same,ABSOLUTE BASOPHIL,[3],0 CELLS/uL
same,ABSOLUTE EOSINOPHIL,[3],0 CELLS/uL
same,ABSOLUTE LYMPHOCYTE,[3],6138.33 CELLS/uL
same,ABSOLUTE MONOCYTE,[3],139 CELLS/uL
same,ABSOLUTE SEGMENTED NEUTROPHIL,[3],2022.67 CELLS/uL
same,BASOPHIL,[3],0%
same,EOSINOPHIL,[3],0%
same,ERYTHROCYTE COUNT,[3],6.14 x10E6/uL
same,HEMATOCRIT,[3],37.2%
same,HEMOGLOBIN,[3],14.47 G/DL
same,LEUKOCYTE COUNT,[3],8.3 x10E3/uL
same,LYMPHOCYTE,[3],74%
same,MEAN CORPUSCULAR HEMOGLOBIN,[3],23.6 pg
same,MEAN CORPUSCULAR HEMOGLOBIN CONCENTRATION,[3],38.9 G/DL
same,MEAN CORPUSCULAR VOLUME,[3],60.67 fL
same,MONOCYTE,[3],1.67%
same,NEUTROPHIL,[3],24.33%
same,NUCLEATED RED BLOOD CELLS,[3],0 /100WBC
same,PLATELET COUNT,[3],1488.67 x10E3/uL
same,ALANINE AMINOTRANSFERASE,[3],191 u/L
same,ALBUMIN,[3],4.5 G/DL
same,ALKALINE PHOSPHATASE,[3],802.67 u/L
same,ASPARTATE AMINOTRANSFERASE,[3],387.67 u/L
same,BLOOD UREA NITROGEN,[3],11.67 mg/dL
same,CARBON DIOXIDE,[3],29.33 mmol/L
same,CHLORIDE,[3],100 MEQ/L
same,CHOLESTEROL,[3],53.33 mg/dL
same,CREATINE PHOSPHOKINASE,[3],612.33 u/L
same,CREATININE,[3],0.13 mg/dL
same,GLUCOSE,[3],134.33 mg/dL
same,LACTATE DEHYDROGENASE,[3],263.33 u/L
same,LIPASE,[3],38.67 u/L
same,PHOSPHORUS,[3],7.8 mg/dL
same,POTASSIUM,[3],5.55 MEQ/L
same,SODIUM,[3],149.05 MEQ/L
same,TOTAL BILIRUBIN,[3],0.1 mg/dL
same,TOTAL PROTEIN,[3],6.03 G/DL
same,URIC ACID,[3],0.43 mg/dL
